{"source": "patent US20050164308A1", "about": "“Beta-lactamase CD4+ T-cell epitopes” (priority 2003, published 2005)", "key": {"CD4+ T-cells [1]": {"test_system": "CD4+ T-cells", "test": "I-MUNE assay: proliferation of CD4+ T-cells with differentiated dendritic cells in response to beta-lactamase 15-mer peptides", "type": "cell-based, human"}, "[2]": {"test_system": "HLA-DRB1 and DQB1 antigens", "test": "HLA association with responses to epitope peptides", "parameters": "species or system human", "experimental": "HLA-DR and DQ types were analyzed for associations with responses to defined epitope peptides. A Chi-squared analysis, with one degree of freedom was used to determine significance. Where an allele was present in both the responder and non-responder pools, a relative risk was calculated.\nThe HLA-DR and DQ expression of 65 of the donors tested in both rounds of assay testing described above were assessed using a commercially available PCR-based HLA typing kit (Bio-Synthesis). […] Wherever the HLA antigen was present in both reactive and non-reactive donors, a relative risk (i.e., the increased or decreased likelihood of presenting a reaction conditioned on the presence of the HLA antigen) was computed. […] In addition, the mean and standard error of quantitative response for each peptide were determined.\nThe magnitude of the proliferative response to an individual peptide in responders and non-responders expressing epitope-associated HLA alleles were also be analyzed. An “individual responder to the peptide” is defined by a stimulation index of greater than 2.95."}, "CD4+ T-cells [3]": {"test_system": "CD4+ T-cells", "type": "cell-based, human", "conditions": "for effect of the change on the percent of responders to the modified epitope sequence: epitope #49 substitution, 69 donors"}}}
{"substance": "#36 (MLDLATYTAGGLPLQ; listed as Enterobacter cloacae)", "values": [{"measurement": "response (percent responders)", "setting": "CD4+ T-cells [1]", "result": 12.11, "unit": "%"}, {"measurement": "quantitative response of DR1+ responders", "setting": "[2]; donors reactive to the peptide", "result": 7.8}, {"measurement": "quantitative response of DR1- responders", "setting": "[2]; donors reactive to the peptide", "result": 4.42}]}
{"substance": "#107 (TGGFGSYVAFIPEKQ; listed as Enterobacter cloacae)", "values": [{"measurement": "response (percent responders)", "setting": "CD4+ T-cells [1]", "result": 12.11, "unit": "%"}, {"measurement": "response of DR13 non-responders lower than the other genotypes", "setting": "[2]; among non-responders", "result": 23, "unit": "%"}, {"measurement": "increase of quantitative response in DR1+ relative to DR1- responders", "setting": "[2]; donors reactive to the peptide", "result": 27, "unit": "%"}, {"measurement": "quantitative response of DR1+ responders", "setting": "[2]; donors reactive to the peptide", "result": 5.4}, {"measurement": "quantitative response of DR1- responders", "setting": "[2]; donors reactive to the peptide", "result": 4.2}]}
{"substance": "GTTRLYANASFGLFG (beta-lactamase epitope) [Peptide I155F, peptide #49 with the substitution I155F]", "values": [{"measurement": "effect of the change on the percent of responders to the modified epitope sequence", "setting": "CD4+ T-cells [3]", "result": "little effect"}]}
{"substance": "GTTRLYANASLGLFG (beta-lactamase epitope) [Peptide I155L, peptide #49 with the substitution I155L]", "values": [{"measurement": "effect of the change on the percent of responders to the modified epitope sequence", "setting": "CD4+ T-cells [3]", "result": "little effect"}]}
{"substance": "GTTRLYANASVGLFG (beta-lactamase epitope) [Peptide I155V, peptide #49 with the substitution I155V]", "values": [{"measurement": "effect of the change on the percent of responders to the modified epitope sequence", "setting": "CD4+ T-cells [3]", "result": "increased the percent of responders"}]}
{"substance": "GTTRSYANASIGLFG (variant of SEQ ID NO82) [Peptide L149S, peptide #49 with the substitution L149S]", "values": [{"measurement": "effect on the epitope response rate", "setting": "CD4+ T-cells [3]", "result": "had an effect"}]}
{"substance": "tetanus toxoid [reference compound]", "values": [{"measurement": "positive control proliferative response", "setting": "CD4+ T-cells [1]; approximately 5 Lf/mL", "result": "robust positive control responses"}]}
